Laboratory results from patent US20250026719A1, “NOVEL COMPOUNDS AS INHIBITORS OF PCSK9” (SHENGKE PHARMACEUTICALS (JIANGSU) LTD., priority 2021, published 2025).

Assays:
PCSK9 mRNA = experiment: RT-Q-PCR analysis of PCSK9 mRNA in HepG2 cells; format: cell-based; conditions: Homo sapiens, 24 h, normalized to GAPDH, read-out: HepG2 Q-PCR PCSK9 mRNA level decrease (10 μM)
Experimental: HepG2 cells (ATCC, Cat.:HB-8065) were maintained in Growth medium—Eagle's Minimum Essential Medium (Corning, 10-010-CVR), 10% FBS (Gibco, 10099-141), Penicillin (100 units/mL), Streptomycin (100 μg/mL). HepG2 cells were incubated at 37° C., 5% CO2.
Cells were cultured in growth medium as described above and treated with the vehicle, Berberine or test compound for 24 h. The RNA was extracted using the Total RNA mini Kit (Tiangen, Beijing, China) according to the manufacturer's instructions. Reverse transcription was carried out using the High-Capacity cDNA reverse transcription kit (Thermo Fisher Scientific). Quantitative real-time PCR was performed using a reaction mixture containing cDNA, specific primers [PCSK9, 5′-[…]-3′ (forward) and 5′-[…]-3′ (reverse); GAPDH, 5′-[…]-3′ (forward) and 5′-[…]-3′ (reverse)] and Maxima SYBR Green/ROX qPCR Master Mix(Thermo Fisher Scientific). PCR amplification was carried out in a Real-Time PCR System. The real-time PCR conditions were 37° C. 10 min; 95° C. 10 min; 95° C. 15 s, 60° C. 30 s, 72° C. 30 s, 40 cycle. The amount of mRNA was normalized to the GAPDH level in the same samples.

PCSK9 = PCSK9 ELISA of HepG2 culture medium; format: cell-based; conditions: 24 hr
Experimental: (§1) HepG2 cells (ATCC, Cat.:HB-8065) were maintained in Growth medium—Eagle's Minimum Essential Medium (Corning, 10-010-CVR), 10% FBS (Gibco, 10099-141), Penicillin (100 units/mL), Streptomycin (100 μg/mL). HepG2 cells were incubated at 37° C., 5% CO2. HepG2 cells were plated in flat bottom 96-well plates (Corning, 3599) at 40,000 cells/well in 100 μL of growth media. After an overnight incubation, the culture media were changed to serum-free OptiMEM media(Gibco, 31985-062), 90 μL/well. Vehicle, PF-06446846 hydrochloride, berberine, or test compound was added to the culture media, 10 μL/well. After 24 hr medium was harvested, and 10 μL of the medium were used for the PCSK9 ELISA(R&D Systems, SPC900).

HepG2 cells = experiment: HepG2 cell viability assay (CellTiter-Glo, cellular ATP); format: cell-based; conditions: 24 hr, serum-free OptiMEM
Experimental: as §1, with “black clear” for “flat”, “3063)” for “3599)”, “media (Gibco,” for “media(Gibco,”, “cellular ATP levels” for “medium was harvested, and 10 μL of the medium”, “measured using CellTiter-Glo® 2.0 Assay (Promega, G9242).” for “used for the PCSK9 ELISA(R&D Systems, SPC900).”

[1] = Metabolic stability in rat liver microsomes; format: in vitro ADME; conditions: rat liver microsomes 0.5 mg/mL, 37° C., read-out: Metabolic stability T1/2 (minute) Rat
Experimental: (§2) Metabolic Stability of Test Compounds in Incubation with Human, and Rat Liver Microsomes Study Details: • Test concentration: 1 μM; • Reference compound: Ketanserin; • Test systems: human, and rat liver microsomes (from Corning or Xenotech) with final liver microsomal protein concentration of 0.5 mg/mL; • Incubation condition: 0, 5, 15, 30, and 45 min at 37° C.; • Sample size: Duplicates (n=2); • Bioanalytical method: LC-MS/MS;
(§3) [formula] [formula] [formula] • where QH is the hepatic blood flow (mL/min/kg), fub is the fraction of unbound drug in plasma which is assumed to be 1, Clint is the in vitro intrinsic clearance.

[2] = Metabolic stability in human liver microsomes; format: in vitro ADME; conditions: human liver microsomes 0.5 mg/mL, 37° C., read-out: Metabolic stability T1/2 (minute) Human
Experimental: as §2, §3

| Compound | inhibition at 10 µM (PCSK9 mRNA) [%] | HepG2 PCSK9 ELISA (10 μM) % inhibition (PCSK9) [%] | HepG2 Survival assay (10 μM) (HepG2 cells) [%] | half-life at 1 μM [1] [min] | half-life at 1 μM [2] [min] |
| --- | --- | --- | --- | --- | --- |
| COc1ccc2cc3[n+](cc2c1OC)CCc1cc2c(cc1-3)OCO2 [Berberine, reference compound] | 35 | 52 |  |  |  |
| CC(C)NC(=O)CN(CC(=O)Nc1ccc(Oc2ccc(C(F)(F)F)cc2)cc1)C(=O)c1cc2cccc(F)c2[nH]1 [Compound 201-275] | 75 | 80 | 92 | 341 | 57.2 |
| CCc1ccc(Oc2ccc(NC(=O)CN(CC(=O)NC(C)C)C(=O)c3cc4cccc(F)c4[nH]3)cc2)cc1 [Compound 201-276] | 54 | 94 | 99 | 42.4 | 46.7 |
| CC(C)NC(=O)CN(CC(=O)Nc1ccc(Oc2ccc(F)c(F)c2)cc1)C(=O)c1cc2cccc(F)c2[nH]1 [Compound 201-277] | 86 | 100 | 90 | 45.4 | 40.2 |
| CC(C)NC(=O)CN(CC(=O)Nc1ccc(Oc2ccc(C(F)(F)F)cc2)cc1)C(=O)c1ccc(C(F)(F)F)[nH]1 [Compound 201-281] | 70 | 100 | 98 | 428 | 159 |
| CC(C)NC(=O)CN(CC(=O)Nc1ccc(Oc2ccc(F)c(F)c2)cc1)C(=O)c1ccc(C(F)(F)F)[nH]1 [Compound 201-283] | 77 | 100 | 97 | 49.6 | 77.8 |
| CC(C)NC(=O)CN(CC(=O)Nc1ccc(Oc2ccc(C(F)(F)F)cc2)cc1)C(=O)c1cc2cccc(C#N)c2[nH]1 [Compound 201-284] | 90 | 94 | 101 | 66 | 64 |
| O=C(CN(CC(=O)NC1CC1)C(=O)c1cc2cccc(F)c2[nH]1)Nc1ccc(Oc2ccc(C(F)(F)F)cc2)cc1 [Compound 201-287] | 56 | 99 | 96 | 138 | 100 |
| O=C(CN(CC(=O)NC1CC1)C(=O)c1ccc(C(F)(F)F)[nH]1)Nc1ccc(Oc2ccc(C(F)(F)F)cc2)cc1 [Compound 201-293] | 50 | 100 | 99 | 417 | 98.7 |
| CC(C)NC(=O)CN(CC(=O)Nc1ccc(Oc2ccc(C(C)C)cc2)cc1)C(=O)c1cc2cccc(F)c2[nH]1 [Compound 201-311] |  | 85 | 105.9 |  |  |
| CC(C)c1ccc(Oc2ccc(NC(=O)CN(CC(=O)NC3CC3)C(=O)c3cc4cccc(F)c4[nH]3)cc2)cc1 [Compound 201-312] | 50 | 89 | 102.7 | 29.6 | 52.8 |
| COc1ccc(Oc2ccc(NC(=O)CN(CC(=O)NC(C)C)C(=O)c3cc4cccc(F)c4[nH]3)cc2)cc1 [Compound 201-313] |  | 98 | 89.4 |  |  |
| COc1ccc(Oc2ccc(NC(=O)CN(CC(=O)NC3CC3)C(=O)c3cc4cccc(F)c4[nH]3)cc2)cc1 [Compound 201-314] |  | 97 | 103.7 |  |  |
| CC(C)NC(=O)CN(CC(=O)Nc1ccc(Oc2ccc(C(C)C)cc2)cc1)C(=O)c1ccc(C(F)(F)F)o1 [Compound 201-315] |  | 89 | 102 |  |  |
| CC(C)c1ccc(Oc2ccc(NC(=O)CN(CC(=O)NC3CC3)C(=O)c3ccc(C(F)(F)F)o3)cc2)cc1 [Compound 201-316] |  | 89 | 108.4 |  |  |
| COc1ccc(Oc2ccc(NC(=O)CN(CC(=O)NC(C)C)C(=O)c3ccc(C(F)(F)F)o3)cc2)cc1 [Compound 201-317] |  |  | 100.8 |  |  |
| COc1ccc(Oc2ccc(NC(=O)CN(CC(=O)NC3CC3)C(=O)c3ccc(C(F)(F)F)o3)cc2)cc1 [Compound 201-318] |  |  | 101.6 |  |  |
| CC(C)NC(=O)CN(CC(=O)Nc1ccc(Oc2ccc(C(C)C)cc2)cc1)C(=O)c1ccc(C(F)(F)F)[nH]1 [Compound 201-319] | 60 | 96 | 76.1 |  |  |
| CC(C)c1ccc(Oc2ccc(NC(=O)CN(CC(=O)NC3CC3)C(=O)c3ccc(C(F)(F)F)[nH]3)cc2)cc1 [Compound 201-320] | 80 | 93 | 87.3 | 20.8 | 93 |
| COc1ccc(Oc2ccc(NC(=O)CN(CC(=O)NC3CC3)C(=O)c3ccc(C(F)(F)F)[nH]3)cc2)cc1 [Compound 201-322] |  |  | 89.6 |  |  |
| CC(C)NC(=O)CN(CC(=O)Nc1ccc(Oc2ccc(C(C)C)cc2)cc1)C(=O)c1cc2cccc(C#N)c2[nH]1 [Compound 201-323] |  | 79 | 105.6 |  |  |
| CC(C)c1ccc(Oc2ccc(NC(=O)CN(CC(=O)NC3CC3)C(=O)c3cc4cccc(C#N)c4[nH]3)cc2)cc1 [Compound 201-324] |  | 72 | 101.5 |  |  |
| COc1ccc(Oc2ccc(NC(=O)CN(CC(=O)NC3CC3)C(=O)c3cc4cccc(C#N)c4[nH]3)cc2)cc1 [Compound 201-326] |  | 83 | 112.5 |  |  |
| CC(C)NC(=O)CN(CC(=O)Nc1ccc(Oc2ccc(C(F)F)cc2)cc1)C(=O)c1cc2cccc(F)c2[nH]1 [Compound 201-327] | 88 | 90 | 98 | 35.4 | 14.4 |
| CC(C)NC(=O)CN(CC(=O)Nc1ccc(Oc2ccc(C(F)F)cc2)cc1)C(=O)c1cc2cccc(C#N)c2[nH]1 [Compound 201-329] | 73 | 91 | 106 | 17.5 | 14.3 |
| CC(C)NC(=O)CN(CC(=O)Nc1ccc(Oc2cc(F)c(F)c(F)c2)cc1)C(=O)c1cc2cccc(F)c2[nH]1 [Compound 201-331] | 92 | 87 | 103 | 41 | 20.6 |
| CC(C)NC(=O)CN(CC(=O)Nc1ccc(Oc2cc(F)c(F)c(F)c2)cc1)C(=O)c1cc2cccc(C#N)c2[nH]1 [Compound 201-332] | 85 | 89 | 99 | 38.7 | 22.4 |
